Source: US10004701B2, “Methods and compositions for treating infection” (UNIVERSITY OF ROCHESTER, priority 2012, dated 2018)
Where a name gives a salt, the structure may show the parent alone. Read-outs that look alike come from different tables or passages of the source.

Tests used:
Test in all cases: AK assay 384-well format, Prestwick library screening
E. cloacae = assay type: cell-based, Enterobacter cloacae; details: 50 μM final drug concentration; for fold induction at 50 µM: Enterobacter cloacae, 3 h
[1] = system: S. aureus strain USA300-0114; assay type: cell-based, Staphylococcus aureus; details: 50 μM final drug concentration; for fold induction at 50 µM: Staphylococcus aureus, USA300, 3 h
E. faecium = assay type: cell-based, Enterococcus faecium; details: 50 μM final drug concentration; for fold induction at 50 µM: Enterococcus faecium, 3 h
[2] = system: A. baumannii strain 98-37-09; assay type: cell-based, Acinetobacter baumannii; details: 50 μM final drug concentration; for fold induction at 50 µM: Acinetobacter baumannii, 983709, 3 h
E. coli = assay type: cell-based, Escherichia coli; details: 50 μM final drug concentration; for fold induction at 50 µM: Escherichia coli, 3 h
P. aeruginosa = assay type: cell-based, Pseudomonas aeruginosa; details: 50 μM final drug concentration; for fold induction at 50 µM: Pseudomonas aeruginosa, 3 h
K. pneumoniae = assay type: cell-based, Klebsiella pneumoniae; details: 50 μM final drug concentration; for fold induction at 50 µM: Klebsiella pneumoniae, 3 h
[3] = planktonic, cutoff for positive-scoring molecules 3-fold increase, read-out: AK-based Prestwick Library Screening Results, E. cloacae (fold increase in extracellular AK activity)
[4] = planktonic, cutoff for positive-scoring molecules 3-fold increase, read-out: AK-based Prestwick Library Screening Results, S. aureus (fold increase in extracellular AK activity)
[5] = planktonic, cutoff for positive-scoring molecules 3-fold increase, read-out: AK-based Prestwick Library Screening Results, E. faecium (fold increase in extracellular AK activity)
[6] = planktonic, cutoff for positive-scoring molecules 3-fold increase, read-out: AK-based Prestwick Library Screening Results, A. baumannii (fold increase in extracellular AK activity)
[7] = planktonic, cutoff for positive-scoring molecules 3-fold increase, read-out: AK-based Prestwick Library Screening Results, E. coli (fold increase in extracellular AK activity)
[8] = planktonic, cutoff for positive-scoring molecules 3-fold increase, read-out: AK-based Prestwick Library Screening Results, P. aeruginosa (fold increase in extracellular AK activity)
[9] = planktonic, cutoff for positive-scoring molecules 3-fold increase, read-out: AK-based Prestwick Library Screening Results, K. pneumoniae (fold increase in extracellular AK activity)
[10] = 384-well format, cutoff for positive-scoring molecules 3-fold increase, read-out: AK-based Prestwick Library Screening Results, E. cloacae (increase in extracellular AK activity)
[11] = 384-well format, cutoff for positive-scoring molecules 3-fold increase, read-out: AK-based Prestwick Library Screening Results, S. aureus (increase in extracellular AK activity)
[12] = 384-well format, cutoff for positive-scoring molecules 3-fold increase, read-out: AK-based Prestwick Library Screening Results, E. faecium (increase in extracellular AK activity)
[13] = 384-well format, cutoff for positive-scoring molecules 3-fold increase, read-out: AK-based Prestwick Library Screening Results, A. baumannii (increase in extracellular AK activity)
[14] = 384-well format, cutoff for positive-scoring molecules 3-fold increase, read-out: AK-based Prestwick Library Screening Results, E. coli (increase in extracellular AK activity)
[15] = 384-well format, cutoff for positive-scoring molecules 3-fold increase, read-out: AK-based Prestwick Library Screening Results, P. aeruginosa (increase in extracellular AK activity)
[16] = 384-well format, cutoff for positive-scoring molecules 3-fold increase, read-out: AK-based Prestwick Library Screening Results, K. pneumoniae (increase in extracellular AK activity)
[17] = planktonic E. cloacae, 384-well, cutoff for positive-scoring molecules 3-fold increase, read-out: AK-based Prestwick Library Screening Results: E. cloacae (increase in extracellular AK activity)
[18] = planktonic S. aureus, 384-well, cutoff for positive-scoring molecules 3-fold increase, read-out: AK-based Prestwick Library Screening Results: S. aureus (increase in extracellular AK activity)
[19] = planktonic E. faecium, 384-well, cutoff for positive-scoring molecules 3-fold increase, read-out: AK-based Prestwick Library Screening Results: E. faecium (increase in extracellular AK activity)
[20] = planktonic A. baumannii, 384-well, cutoff for positive-scoring molecules 3-fold increase, read-out: AK-based Prestwick Library Screening Results: A. baumannii (increase in extracellular AK activity)
[21] = planktonic E. coli, 384-well, cutoff for positive-scoring molecules 3-fold increase, read-out: AK-based Prestwick Library Screening Results: E. coli (increase in extracellular AK activity)
[22] = planktonic P. aeruginosa, 384-well, cutoff for positive-scoring molecules 3-fold increase, read-out: AK-based Prestwick Library Screening Results: P. aeruginosa (increase in extracellular AK activity)
[23] = planktonic K. pneumoniae, 384-well, cutoff for positive-scoring molecules 3-fold increase, read-out: AK-based Prestwick Library Screening Results: K. pneumoniae (increase in extracellular AK activity)

CN(C)CCCSC(=N)N [Dimaprit dihydrochloride]
fold induction at 50 µM (E. cloacae; planktonic E. cloacae, positive cutoff 3-fold increase, read-out: AK-based Prestwick library screening result, E. cloacae (fold increase in extracellular AK activity)): 1
fold induction at 50 µM ([1]; planktonic S. aureus, positive cutoff 3-fold increase, read-out: AK-based Prestwick library screening result, S. aureus (fold increase in extracellular AK activity)): 0.7
fold induction at 50 µM (E. faecium; planktonic E. faecium, positive cutoff 3-fold increase, read-out: AK-based Prestwick library screening result, E. faecium (fold increase in extracellular AK activity)): 0.9
fold induction at 50 µM ([2]; planktonic A. baumannii, positive cutoff 3-fold increase, read-out: AK-based Prestwick library screening result, A. baumannii (fold increase in extracellular AK activity)): 0.8
fold induction at 50 µM (E. coli; planktonic E. coli, positive cutoff 3-fold increase, read-out: AK-based Prestwick library screening result, E. coli (fold increase in extracellular AK activity)): 0.8
fold induction at 50 µM (P. aeruginosa; planktonic P. aeruginosa, positive cutoff 3-fold increase, read-out: AK-based Prestwick library screening result, P. aeruginosa (fold increase in extracellular AK activity)): 0.8
fold induction at 50 µM (K. pneumoniae; planktonic K. pneumoniae, positive cutoff 3-fold increase, read-out: AK-based Prestwick library screening result, K. pneumoniae (fold increase in extracellular AK activity)): 0.7

O=C1OC(CN2CCOCC2)CN1/N=C/c1ccc([N+](=O)[O-])o1 (stereo not shown) [Furaltadone hydrochloride]
fold induction at 50 µM (E. cloacae; [3]): 1.7
fold induction at 50 µM [1, 4]: 0.7
fold induction at 50 µM (E. faecium; [5]): 1.1
fold induction at 50 µM [2, 6]: 1
fold induction at 50 µM (E. coli; [7]): 0.9
fold induction at 50 µM (P. aeruginosa; [8]): 1.1
fold induction at 50 µM (K. pneumoniae; [9]): 2.6

C#C[C@]1(O)CC[C@H]2[C@@H]3CCC4=CC(=O)CC[C@]4(C)[C@H]3CC[C@@]21C [Ethisterone]
fold induction at 50 µM (E. cloacae; 384-well format, […], read-out: AK-based Prestwick Library Screening Results, E. cloacae (increase in extracellular AK activity)): 1.1
fold induction at 50 µM ([1]; 384-well format, […], read-out: AK-based Prestwick Library Screening Results, S. aureus (increase in extracellular AK activity)): 0.8
fold induction at 50 µM (E. faecium; 384-well format, […], read-out: AK-based Prestwick Library Screening Results, E. faecium (increase in extracellular AK activity)): 0.9
fold induction at 50 µM ([2]; 384-well format, […], read-out: AK-based Prestwick Library Screening Results, A. baumannii (increase in extracellular AK activity)): 0.9
fold induction at 50 µM (E. coli; 384-well format, […], read-out: AK-based Prestwick Library Screening Results, E. coli (increase in extracellular AK activity)): 1
fold induction at 50 µM (P. aeruginosa; 384-well format, […], read-out: AK-based Prestwick Library Screening Results, P. aeruginosa (increase in extracellular AK activity)): 1
fold induction at 50 µM (K. pneumoniae; 384-well format, […], read-out: AK-based Prestwick Library Screening Results, K. pneumoniae (increase in extracellular AK activity)): 0.8

Cc1cc(NC(=O)C2=C(O)c3ccccc3S(=O)(=O)N2C)no1 [Isoxicam]
fold induction at 50 µM (E. cloacae; [10]): 1.4
fold induction at 50 µM [1, 11]: 1
fold induction at 50 µM (E. faecium; [12]): 1
fold induction at 50 µM [2, 13]: 1
fold induction at 50 µM (E. coli; [14]): 1.2
fold induction at 50 µM (P. aeruginosa; [15]): 1
fold induction at 50 µM (K. pneumoniae; [16]): 1

C[C@@H]1O[C@@H](O[C@H]2C[C@@H](O)[C@]3(CO)[C@H]4[C@H](O)C[C@]5(C)[C@@H](C6=CC(=O)OC6)CC[C@]5(O)[C@@H]4CC[C@]3(O)C2)[C@H](O)[C@H](O)[C@H]1O.O.O.O.O.O.O.O.O [Strophantine octahydrate]
AK-based Prestwick Library Screening Results, E. cloacae (fold increase in extracellular AK activity) (E. cloacae; planktonic, […]): 1.7
AK-based Prestwick Library Screening Results, S. aureus (fold increase in extracellular AK activity) ([1]; planktonic, […]): 1.1
AK-based Prestwick Library Screening Results, E. faecium (fold increase in extracellular AK activity) (E. faecium; planktonic, […]): 1.0
AK-based Prestwick Library Screening Results, A. baumannii (fold increase in extracellular AK activity) ([2]; planktonic, […]): 1.2
AK-based Prestwick Library Screening Results, E. coli (fold increase in extracellular AK activity) (E. coli; planktonic, […]): 1.2
AK-based Prestwick Library Screening Results, P. aeruginosa (fold increase in extracellular AK activity) (P. aeruginosa; planktonic, […]): 1.1
AK-based Prestwick Library Screening Results, K. pneumoniae (fold increase in extracellular AK activity) (K. pneumoniae; planktonic, […]): 0.9

CCn1cc(C(=O)O)c(=O)c2cnc(N3CCCC3)nc21 [Piromidic acid]
fold induction at 50 µM (E. cloacae; [3]): 0.6
fold induction at 50 µM [1, 4]: 0.7
fold induction at 50 µM (E. faecium; [5]): 0.9
fold induction at 50 µM [2, 6]: 0.5
fold induction at 50 µM (E. coli; [7]): 0.6
fold induction at 50 µM (P. aeruginosa; [8]): 0.5
fold induction at 50 µM (K. pneumoniae; [9]): 0.6

CC1Cc2ccccc2N1NC(=O)c1ccc(Cl)c(S(N)(=O)=O)c1 (stereo not shown) [Indapamide]
fold induction at 50 µM (E. cloacae; [17]): 1.7
fold induction at 50 µM [1, 18]: 1
fold induction at 50 µM (E. faecium; [19]): 1.1
fold induction at 50 µM [2, 20]: 1
fold induction at 50 µM (E. coli; [21]): 1.1
fold induction at 50 µM (P. aeruginosa; [22]): 1.1
fold induction at 50 µM (K. pneumoniae; [23]): 1.1

CCn1cc(C(=O)O)c(=O)c2cc3c(cc21)OCO3 [Oxolinic acid]
fold induction at 50 µM (E. cloacae; [10]): 4.3
fold induction at 50 µM [1, 11]: 1
fold induction at 50 µM (E. faecium; [12]): 1.1
fold induction at 50 µM [2, 13]: 2.3
fold induction at 50 µM (E. coli; [14]): 13.1
fold induction at 50 µM (P. aeruginosa; [15]): 1
fold induction at 50 µM (K. pneumoniae; [16]): 1.6

CCNC1(c2cccs2)CCCCC1=O.Cl (stereo not shown) [Tiletamine hydrochloride]
AK-based Prestwick library screening result, E. cloacae (fold increase in extracellular AK activity) (E. cloacae; planktonic E. cloacae, […]): 1.4
AK-based Prestwick library screening result, S. aureus (fold increase in extracellular AK activity) ([1]; planktonic S. aureus, […]): 1.1
AK-based Prestwick library screening result, E. faecium (fold increase in extracellular AK activity) (E. faecium; planktonic E. faecium, […]): 1.0
AK-based Prestwick library screening result, A. baumannii (fold increase in extracellular AK activity) ([2]; planktonic A. baumannii, […]): 1.6
AK-based Prestwick library screening result, E. coli (fold increase in extracellular AK activity) (E. coli; planktonic E. coli, […]): 1.2
AK-based Prestwick library screening result, P. aeruginosa (fold increase in extracellular AK activity) (P. aeruginosa; planktonic P. aeruginosa, […]): 1.1
AK-based Prestwick library screening result, K. pneumoniae (fold increase in extracellular AK activity) (K. pneumoniae; planktonic K. pneumoniae, […]): 1.1

CO[C@@H]1[C@@H](O[C@@H]2O[C@H](C)[C@@H](O[C@H]3C[C@@](C)(O)[C@@H](OC(=O)CC(C)C)[C@H](C)O3)[C@H](N(C)C)[C@H]2O)[C@@H](CC=O)C[C@@H](C)[C@@H](O)/C=C/C=C/C[C@@H](C)OC(=O)C[C@H]1OC(C)=O [Josamycin]
fold induction at 50 µM (E. cloacae; [17]): 1.4
fold induction at 50 µM [1, 18]: 8.4
fold induction at 50 µM (E. faecium; [19]): 1
fold induction at 50 µM [2, 20]: 1.1
fold induction at 50 µM (E. coli; [21]): 1.3
fold induction at 50 µM (P. aeruginosa; [22]): 0.9
fold induction at 50 µM (K. pneumoniae; [23]): 1
